# From patent publication US9593305B2, “Differentiation of pluripotent stem cells” (Janssen Biotech, Inc., priority 2008, dated 2017)
# Tested on: H1 human embryonic stem cells
# Test: Secondary screening with EGF/FGF4 in the absence of activin A (Example 4)
# Type: cell-based
# Details: 2.5 μM compound + 50 ng/ml EGF + 50 ng/ml FGF4, Wnt3a, no activin A, four days
# Procedure: Clusters of H1 human embryonic stem cells were grown on reduced growth factor […]™ (Invitrogen; Cat #356231)-coated tissue culture plastic. Cells were passaged using collagenase (Invitrogen; Cat #Cat #17104-019) treatment and gentle scraping, washed to remove residual enzyme, and plated with even dispersal at a ratio of 1:1 (surface area) on reduced growth factor […]™-coated 96-well black plates (Packard ViewPlates; PerkinElmer; Cat #6005182) using volumes of 100 μl/well. Cells were allowed to attach as clusters and then recover log phase growth over a 1 to 3 day period, feeding daily with MEF conditioned medium supplemented with 8 ng/ml bFGF (R&D Systems; Cat #233-FB). Plates were maintained at 37° C., 5% CO2 in a humidified box throughout the duration of assay.
# Stock concentrations for EGF (R&D Systems; Cat #236-EG) and FGF4 (R&D Systems; Cat #235-F4) were 250 ng/ml, each solubilized in PBS with 0.1% BSA (Sigma; Cat #A7888). Compounds were available as 5 mM stocks in 96-well plate format, solubilized in 100% DMSO (Sigma; Cat #D2650) and stored at −80° C. The compounds were further diluted to an intermediate concentration of 0.2 mM in 50 mM HEPES (Invitrogen; Cat #15630-080), 20% DMSO and stored at 4° C. All growth factors and inhibitors were prepared in a deep well, 96-well polypropylene plate, diluted to 5× intermediate stocks in DMEM:F12 base medium at the beginning of assay and stored at 4° C.
# A secondary screening assay was conducted, testing in triplicate and feeding on alternate days over the four-day assay timeframe. Assays were initiated by aspirating culture medium from each well followed by three washes in PBS to remove residual growth factors and serum. Test volumes of 80 μl per well were added back containing DMEM:F12 base medium (Invitrogen; Cat #11330-032) supplemented with 0.625% FCS (HyClone; Cat #SH30070.03), 25 ng/ml Wnt3a (R&D Systems), and 3.125 μM compound plus 20 μl 5× stock of growth factors to yield a final concentration of 0.5% FCS, 20 ng/ml Wnt3a, and 2.5 μM compound plus 50 ng/ml EGF and 50 ng/ml FGF4 in the assay. Positive control wells (100 μl/well) contained the same base medium supplemented with 0.5% FCS, 20 ng/ml Wnt3a and 100 ng/ml activin A. Negative control wells (100 μl/well) contained the same base medium with 0.5% FCS and 20 ng/ml Wnt3a, omitting activin A.
# On day 3, wells were aspirated and fed with 80 μl DMEM:F12 base medium supplemented with 2.5% FCS (HyClone) and 3.125 μM compound plus […] 5× stock of growth factors per well to yield a final concentration of 2% FCS and 2.5 μM compound (omitting Wnt3a) plus 50 ng/ml EGF and FGF4 in the assay. Positive control wells (100 μl/well) contained the same base medium supplemented with 2% FCS and 100 ng/ml activin A, omitting Wnt3a. Negative control wells (100 μl/well) contained the same base medium with 2% FCS, omitting both activin A and Wnt3a.
# At the conclusion of four-days of culture, assay plates were washed twice with PBS, fixed with 4% paraformaldehyde (Alexis Biochemical; Cat #ALX-350-011) at room temperature for 20 minutes, then washed three times with PBS and permeabilized with 0.5% Triton X-100 (Sigma; Cat #T8760-2) for 20 minutes at room temperature. Cells were washed again three times with PBS and blocked with 4% chicken serum (Invitrogen; Cat 16110082) in PBS for 30 minutes at room temperature. Primary antibody (goat anti-human SOX17; R&D Systems; cat #AF1924) was diluted 1:100 in 4% chicken serum and added to each well for one hour at room temperature. Alexa Fluor 488 conjugated secondary antibody (chicken anti-goat IgG; Molecular Probes; Cat #AZ1467) was diluted 1:200 in PBS and added to each sample well after washing three times with PBS. To counterstain nuclei, 4 μg/ml Hoechst 33342 (Invitrogen; Cat #H3570) was added for ten minutes at room temperature. Plates were washed once with PBS and left in 100 μl/well PBS for imaging. […]
Compound,Cell Number: % of positive control,Cell Number: Average Total Cell Number,Sox17 Expression: % of positive control,Sox17 Expression: Average Total Intensity
"O=C1CCN2CCN(CC2)Cc2cc(Cl)cc(c2)Nc2ncnc(n2)-c2cncc(c2)CCCN1 [Compound 34, 5-Chloro-1,8,10,12,16,22,26,32-octaazapentacyclo[24.2.2.1˜3.7˜0.1˜9,13˜0.1˜14.18˜]tritriaconta-3(33), 4,6,9(32), 10,12,14(31), 15,17-nonaen-23-one]",100.87 % of positive control,18891,17.55 % of positive control,3.26E+07
"O=C1NCCCc2cncc(c2)-c2ncnc(n2)Nc2cccc(c2)CN2CCC1CC2 [Compound 22, 1,8,10,12,16,22,30-Heptaazapentacyclo[22.2.2.1-3,7˜0.1˜9,13˜1-14,18˜]hentriaconta-3(31), 4,6,9(30), 10,12,14(29), 15,17-nonaen-23-one]",97.91 % of positive control,18336,20.05 % of positive control,3.72E+07
"CCN1CCCc2cccc(c2)-c2ncnc(n2)Nc2cccc(c2)CCNC(=O)C1 [Compound 29, 18-Ethyl-3,5,7,15,18,28-hexaazatetracyclo[20.3.1.1˜2,6˜0.1˜8,12˜]octacosa-1(26), 2(28), 3,5,8(27), 9,11,22,24-nonaen-16-one]",107.97 % of positive control,20221,15.27 % of positive control,2.83E+07
"O=C1NCCCc2cncc(c2)-c2ncnc(n2)Nc2cccc(c2)CN2CCCC1C2 (centres unmarked) [Compound 17, 3,5,7,14,20,26,31-Heptaazapentacyclo[22.3.1.1-2,6˜1˜8,12˜1˜14,18˜]hentriaconta-1(28), 2(31), 3,5,8(30), 9,11,24,26-nonaen-19-one]",114.51 % of positive control,21445,18.48 % of positive control,3.43E+07
"CN1CCC(=O)NCCCNc2ncccc2-c2ncnc(n2)Nc2cccc(c2)C1 [Compound 39, 9-Methyl-2,3,4,5,7,8,9,10-octahydro-16H-17,21-(azeno)-11,15-(metheno)pyrido[3,2-g][1,3,5,9,13,17]hexaazacyclotricosin-6(1H)-one]",91.28 % of positive control,17095,15.19 % of positive control,2.82E+07
"O=C1NCCCc2cncc(c2)-c2ncnc(n2)Nc2cc(Cl)cc(c2)CN2CCCC1C2 (centres unmarked) [Compound 37, 10-Chloro-3,5,7,14,20,26,31-heptaazapentacyclo[22.3.1.1˜2,6˜0.1˜8,12˜0.1˜14,18˜]hentriaconta-1(28), 2(31), 3,5,8(30), 9,11,24,26-nonaen-19-one]",83.32 % of positive control,15605,14.37 % of positive control,2.67E+07

# Same assay, conditions: Table 3B most potent compounds, with EGF + FGF4, no activin A
Compound,"Cell Number, % of positive control",Sox17 Intensity % of positive control
"CCN1CC(=O)NCCCc2cncc(c2)-c2ncnc(n2)Nc2cc(Cl)cc(c2)C1 [Compound 35, 10-Chloro-14-ethyl-3,5,7,14,17,23,27-heptaazatetracyclo[19.3.1.1˜2,6˜0.1˜8,12]Theptacosa-1(25), 2(27), 3,5,8(26), 9,11,21,23-nonaen-16-one]",127.20 % of positive control,13.69 % of positive control
